Measurements taken from patent US20090042848A1, “COPPER COMPLEXES” (priority 2005, published 2009).
Entries after “also recorded” stand apart in the source; their conditions may differ.

Tests used:
small intestine = details: oral
stomach = assay: Acute macroscopic gastric damage after oral dosing; format: in vivo, Sprague-Dawley rats; details: for Gastric Ulceration / macroscopic gastric ulcerations (in words, FIG. 8(1)): oral; for macroscopic gastric ulcerations (in words, FIG. 8(1)): IndoH 10 mg/kg or equimolar Indo dose in 2% (w/v) CMC solution
Method: Rats were fasted with access to water for 24 h prior to dosing and 3 hours post dosing. Three hours after administration of the test compound, the rats were euthanased and the stomach was excised and opened by incision along the greater curvature.
After the aforementioned anti-inflammatory activity experiments, the rats were immediately euthanased. Similarly, the stomach was excised and opened by incision along the greater curvature for the examination of the macroscopic ulcerations (mm^2).
Since there were no significant differences in the results obtained by the two methods, the results shown in FIG. 8(1) are those of the two methods combined.

[1] = test system: carrageenan-induced paw edema; assay: Inhibition of carrageenan-induced paw edema (rat paw oedema assay); format: in vivo, Sprague-Dawley rats; details: oral
[2] = oral administration; cited from earlier work
[3] = 10 mg/kg of Indo dispersed in MCT paste
[4] = 1 mg/kg of Indo dispersed in MCT paste
[5] = 2 mg/kg of Indo dispersed in MCT paste

Row | Compound | Gastric Ulceration (stomach; [3]) [mm^2] | Inhibition % [1, 3] [%] | macroscopic gastric ulcerations (in words, FIG. 8(1)) (stomach) | Inhibition % [1, 4] [%] | Inhibition % [1, 5] [%] | Inhibition % ([1]; 2 mg/kg of Indo in 2% CMC) [%] | other results
1 | COc1ccc2c(c1)c(CC(=O)O)c(C)n2C(=O)c1ccc(Cl)cc1 [IndoH, Indomethacin, reference compound] | 115 ± 30 | 54 ± 12 |  |  |  |  | Small Intestine Ulceration (mm^2) (small intestine; [3]): 80 ± 7 mm^2
2 | CN(C)C=O.CN(C)C=O.COc1ccc2c(c1)c(CC(=O)[O-])c(C)n2C(=O)c1ccc(Cl)cc1.COc1ccc2c(c1)c(CC(=O)[O-])c(C)n2C(=O)c1ccc(Cl)cc1.COc1ccc2c(c1)c(CC(=O)[O-])c(C)n2C(=O)c1ccc(Cl)cc1.COc1ccc2c(c1)c(CC(=O)[O-])c(C)n2C(=O)c1ccc(Cl)cc1.[Cu+2].[Cu+2] [[Cu2(Indo)4(DMF)2], bis(N,N-dimethylformamide)tetrakis-μ-(O,O′-Indo)dicopper(II) complex] |  |  | significant reductions (P<0.01) in gastric ulcerations as compared to those induced by IndoH |  |  |  | gastrointestinal toxicity compared with indomethacin (in words) [2]: less gastrointestinal toxicity than indomethacin; small intestinal toxicity / ulceration (in words, FIG. 8(2)) (small intestine; equimolar Indo dose (10 mg/kg IndoH) in 2% (w/v) CMC solution, 24 h after dosing): low small intestinal toxicity
3 | Bis(η^1-O-Indo)tris(pyridine)copper(II) [[Cu(Indo)2(Py)3], reference compound] |  |  | no significant difference in the gastric ulcerations induced by [Cu(Indo)2(Py)3] or IndoH |  |  |  | efficacy in reducing inflammation (in words, FIG. 9) ([1]; equimolar Indo dose (10 mg/kg IndoH) in 2% (w/v) CMC solution): as effective as [Cu2(Indo)4(DMF)2] in reducing inflammation
4 | Bis(η^2-O,O′-Indo)bis(pyrrolidine)copper(II)-2-pyrrolidine monohydrate [[Cu(Indo)2(Pyrro)2]] |  |  |  |  |  |  | macroscopic gastric ulcerations (in words, FIG. 8(1)) (stomach; monohydrate): significant reductions (P<0.01) in gastric ulcerations as compared to those induced by IndoH; also recorded: significant reduction in gastric ulceration compared with [Cu2(Indo)4(DMF)2]; average gastric ulceration (stomach; second experiment, different sample precipitated from solution with diethyl ether, four rats, same dose of Indo): 21 mm^2
5 | bis(η^2-O,O′-Indo)bis(4-picoline)copper(II) [[Cu(Indo)2(4-pic)2]] |  | 57 ± 19 |  | 28 | 54 | 16 | 
6 | bis(η^2-O,O′-Indo)bis(imidazole)copper(II) [[Cu(Im)2(Indo)2]] | 55 ± 42 | 45 ± 16 |  | 31 | 39 | 11 | Gastric Ulceration (stomach; [4]): 2 ± 2 mm^2; Gastric Ulceration (stomach; [5]): 3 ± 42 mm^2; Gastric Ulceration (stomach; 2 mg/kg of Indo in 2% CMC): 3 ± 3 mm^2
